Measured values reported in ChEMBL document CHEMBL2396568, “An insight into synthetic Schiff bases revealing antiproliferative activities in vitro” (Bioorg Med Chem, 2013).

Legend:
[1] = system: KB; experiment: Antiproliferative activity against hydroxyurea-resistant human KB cells after 24 hrs by MTS assay; assay type: functional, cell-based
[2] = system: KB; experiment: Antiproliferative activity against wild-type human KB cells after 24 hrs by MTS assay; assay type: functional, cell-based
[3] = Antiproliferative activity against human T-lymphoblastic leukemia cells by MTT assay; assay type: functional; details: Leukemia cell, read-out: CD50 (the source's name)
[4] = system: Artemia salina; experiment: Toxicity in brine shrimp; assay type: functional; details: read-out: ED50 (the source's name)
[5] = system: MCF7; experiment: Antiproliferative activity against wild-type human MCF7 cells after 72 hrs by neutral red uptake assay; assay type: functional, cell-based
[6] = system: KB; experiment: Antiproliferative activity against human KB cells after 72 hrs by neutral red uptake assay; assay type: functional, cell-based
[7] = system: MCF7; experiment: Antiproliferative activity against doxorubicin-resistant human MCF7 cells after 72 hrs by neutral red uptake assay; assay type: functional, cell-based
[8] = system: K562; experiment: Antiproliferative activity against human K562 cells by MTT assay; assay type: functional, cell-based
[9] = system: HeLa; experiment: Antiproliferative activity against human HeLa cells after 48 hrs by MTT assay; assay type: functional, cell-based
[10] = system: A549; experiment: Antiproliferative activity against human A549 cells after 24 hrs by MTT assay; assay type: functional, cell-based; details: A549, 24 h
[11] = system: A549; experiment: Antiproliferative activity against human A549 cells after 48 hrs by MTT assay; assay type: functional, cell-based; details: A549, 48 h
[12] = system: HeLa; experiment: Antiproliferative activity against human HeLa cells after 24 hrs by MTT assay; assay type: functional, cell-based
[13] = system: MCF7; experiment: Antiproliferative activity against human MCF7 cells after 24 hrs by MTT assay; assay type: functional, cell-based; details: MCF7, 24 h
[14] = system: PC-3; experiment: Antiproliferative activity against human PC3 cells after 24 hrs by MTT assay; assay type: functional, cell-based; details: PC-3, 24 h
[15] = system: A2780; experiment: Antiproliferative activity against human A2780 cells after 72 hrs by MTT assay; assay type: functional, cell-based; details: A2780, 72 h
[16] = system: A2780; experiment: Antiproliferative activity against cisplatin-resistant human A2780 cells after 72 hrs by MTT assay; assay type: functional, cell-based; details: A2780, 72 h
[17] = Antiproliferative activity against human SW707 cells after 72 hrs by sulforhodamine B assay; assay type: functional; details: SW707, 72 h, read-out: ID50 (the source's name)
[18] = Antiproliferative activity against human HCV29T cells after 72 hrs by sulforhodamine B assay; assay type: functional; details: read-out: ID50 (the source's name)
[19] = system: CCRF-SB; experiment: Antiproliferative activity against human CCRF-SB cells after 96 hrs by MTT assay; assay type: functional, cell-based
[20] = system: CCRF-CEM; experiment: Antiproliferative activity against human CCRF-CEM cells after 96 hrs by MTT assay; assay type: functional, cell-based
[21] = system: WIL2-NS; experiment: Antiproliferative activity against human WIL2-NS cells after 96 hrs by MTT assay; assay type: functional, cell-based
[22] = system: MT4; experiment: Antiproliferative activity against human MT4 cells after 96 hrs by MTT assay; assay type: functional, cell-based; details: MT4, 96 h
[23] = system: HCT-116; experiment: Antiproliferative activity against human HCT116 cells after 48 hrs by sulforhodamine B assay; assay type: functional, cell-based; details: HCT-116, 48 h
[24] = system: HCT-116; experiment: Selectivity ratio of IC50 for human HCT116 cells to IC50 for human Hep2 cells; assay type: functional
[25] = system: HEp-2; experiment: Antiproliferative activity against human Hep2 cells after 48 hrs by sulforhodamine B assay; assay type: functional, cell-based; details: HEp-2, 48 h

O=C(NO)N/N=C/c1ccc(O)c(O)c1O
IC50 [1]: 15.3 µM | IC50 [2]: 37.5 µM

O=C(NO)N/N=C/c1ccc([N+](=O)[O-])s1
IC50 [1]: 28 µM | IC50 [2]: 27.2 µM

C(=N\Cc1ccco1)/c1c2ccccc2cc2ccccc12
CC50 [3]: 67.8 µM

CCC(C)C(/N=C1/c2c(O)cccc2Cc2cc(CO)cc(O)c21)C(=O)O (configuration not stated)
EC50 [4]: 246 µM

CC(O)C(/N=C1/c2c(O)cccc2Cc2cc(CO)cc(O)c21)C(=O)O (configuration not stated)
EC50 [4]: 339 µM

C/N=C/c1c(O)c(O)c(C(C)C)c2c1C(=O)C(C1=C(C)C(=O)c3c(c(/C=N/C)c(O)c(O)c3C(C)C)C1=O)=C(C)C2=O
IC50 ([5]; Homo sapiens, MCF7, 72 h): 0.4 µM | IC50 ([6]; Homo sapiens, KB, 72 h): 0.5 µM | IC50 ([7]; Homo sapiens, MCF7, 72 h): 0.1 µM

S=C(N/N=C(\c1ccccc1)c1ccccn1)SCc1ccccc1
IC50 [8]: 37 µM

O=C(O)C/N=C1/c2c(O)cccc2C([C@@H]2O[C@H](CO)[C@@H](O)[C@H](O)[C@H]2O)c2cc(CO)cc(O)c21 (some centres not stated)
EC50 [4]: 408 µM

CC(/N=C1/c2c(O)cccc2C([C@@H]2O[C@H](CO)[C@@H](O)[C@H](O)[C@H]2O)c2cc(CO)cc(O)c21)C(=O)O (some centres not stated)
EC50 [4]: 130 µM

O=C(O)C(Cc1ccccc1)/N=C1/c2c(O)cccc2C([C@@H]2O[C@H](CO)[C@@H](O)[C@H](O)[C@H]2O)c2cc(CO)cc(O)c21 (some centres not stated)
EC50 [4]: 312 µM

CC(C)CC(/N=C1/c2c(O)cccc2C([C@@H]2O[C@H](CO)[C@@H](O)[C@H](O)[C@H]2O)c2cc(CO)cc(O)c21)C(=O)O (some centres not stated)
EC50 [4]: 32 µM

CCC(C)C(/N=C1/c2c(O)cccc2C([C@@H]2O[C@H](CO)[C@@H](O)[C@H](O)[C@H]2O)c2cc(CO)cc(O)c21)C(=O)O (some centres not stated)
EC50 [4]: 35.2 µM

Cc1cc(O)c2c(c1)C([C@@H]1O[C@H](CO)[C@@H](O)[C@H](O)[C@H]1O)c1cccc(O)c1/C2=N/C(CS)C(=O)O (some centres not stated)
EC50 [4]: 10.2 µM

CSCCC(/N=C1/c2c(O)cccc2C([C@@H]2O[C@H](CO)[C@@H](O)[C@H](O)[C@H]2O)c2cc(CO)cc(O)c21)C(=O)O (some centres not stated)
EC50 [4]: 404 µM

CC(C)C(/N=C1/c2c(O)cccc2C([C@@H]2O[C@H](CO)[C@@H](O)[C@H](O)[C@H]2O)c2cc(CO)cc(O)c21)C(=O)O (some centres not stated)
EC50 [4]: 19.1 µM

CC(O)C(/N=C1/c2c(O)cccc2C([C@@H]2O[C@H](CO)[C@@H](O)[C@H](O)[C@H]2O)c2cc(CO)cc(O)c21)C(=O)O (some centres not stated)
EC50 [4]: 27.6 µM

O=C(O)C/N=C1/c2c(O)cccc2Cc2cc(CO)cc(O)c21
EC50 [4]: 1030 µM

CC(/N=C1/c2c(O)cccc2Cc2cc(CO)cc(O)c21)C(=O)O (configuration not stated)
EC50 [4]: 339 µM

O=C(O)C(Cc1ccccc1)/N=C1/c2c(O)cccc2Cc2cc(CO)cc(O)c21 (configuration not stated)
EC50 [4]: 335 µM

CC(C)CC(/N=C1/c2c(O)cccc2Cc2cc(CO)cc(O)c21)C(=O)O (configuration not stated)
EC50 [4]: 72.2 µM

Cc1cc(O)c2c(c1)Cc1cccc(O)c1/C2=N/C(CS)C(=O)O (configuration not stated)
EC50 [4]: 423 µM

CSCCC(/N=C1/c2c(O)cccc2Cc2cc(CO)cc(O)c21)C(=O)O (configuration not stated)
EC50 [4]: 836 µM

CC(C)C(/N=C1/c2c(O)cccc2Cc2cc(CO)cc(O)c21)C(=O)O (configuration not stated)
EC50 [4]: 145 µM

Clc1ccc(/C=N/c2ccccc2)c(Cl)c1
IC50 [9]: 0.5 µM | IC50 [10]: 1.4 µM | IC50 [11]: 0.8 µM | IC50 [12]: 1.3 µM

Cc1ccc(/C=N/c2ccccc2)c(C)c1
IC50 [9]: 33 µM | IC50 [10]: 144 µM | IC50 [11]: 88.4 µM | IC50 [12]: 115 µM

C(=N\c1ccccc1)/c1ccc2c(c1)OCO2
IC50 [9]: 24.9 µM | IC50 [10]: 207 µM | IC50 [11]: 177 µM | IC50 [12]: 42.2 µM

Oc1ccccc1/C=N\CCn1cccn1
IC50 [13]: 715 µM | IC50 [14]: 522 µM

Oc1c(Cl)cc(Cl)cc1/C=N\CCn1cccn1
IC50 [13]: 32 µM | IC50 [15]: 27 µM | IC50 [14]: 39 µM | IC50 [16]: 26 µM

Oc1c(I)cc(I)cc1/C=N\CCn1cccn1
IC50 [13]: 34 µM | IC50 [15]: 20 µM | IC50 [14]: 32 µM | IC50 [16]: 25 µM

COc1ccc(/C=N/c2nc3ccccc3[nH]2)cc1
IC50 [17]: 183 µM | IC50 [18]: 179 µM

COc1ccc(/C=N/c2nc3ccccc3[nH]2)cc1OC
IC50 [17]: 154 µM | IC50 [18]: 106 µM

COc1cc(/C=N/c2nc3ccccc3[nH]2)cc(OC)c1OC
IC50 [17]: 50.4 µM | IC50 [18]: 52.4 µM

Brc1ccccc1/C=N/c1nc2ccccc2[nH]1
IC50 [17]: 26.3 µM | IC50 [18]: 35.3 µM

Brc1ccc(/C=N/c2nc3ccccc3[nH]2)cc1
IC50 [17]: 33.3 µM | IC50 [18]: 32 µM

Clc1ccccc1/C=N/c1nc2ccccc2[nH]1
IC50 [17]: 63.4 µM | IC50 [18]: 31.7 µM

Clc1cccc(/C=N/c2nc3ccccc3[nH]2)c1
IC50 [17]: 52.4 µM | IC50 [18]: 75.5 µM

O=[N+]([O-])c1ccc(/C=N/c2nc3ccccc3[nH]2)cc1
IC50 [17]: 87.1 µM | IC50 [18]: 88.3 µM

FC(F)(F)c1ccc(/C=N/c2nc3ccccc3[nH]2)cc1
IC50 [18]: 200 µM

Clc1cccc(/C=N\c2nsc3ccccc23)c1
IC50 [19]: 4 µM | IC50 [20]: 2 µM | IC50 [21]: 10 µM | IC50 [22]: 6 µM

COc1cccc(/C=N\c2nsc3ccccc23)c1O
IC50 [19]: 5 µM | IC50 [20]: 2 µM | IC50 [21]: 10 µM | IC50 [22]: 5 µM

COc1cc(/C=N\c2nsc3ccccc23)ccc1O
IC50 [19]: 4 µM | IC50 [20]: 2.5 µM | IC50 [21]: 10 µM | IC50 [22]: 5 µM

Cc1ccc2snc(/N=C\c3ccccc3O)c2c1
IC50 [19]: 3 µM | IC50 [20]: 2 µM | IC50 [21]: 6 µM | IC50 [22]: 5 µM

Cc1ccc2snc(/N=C\c3ccccc3Cl)c2c1
IC50 [19]: 3 µM | IC50 [20]: 1.5 µM | IC50 [21]: 5 µM | IC50 [22]: 3 µM

Cc1ccc2snc(/N=C\c3cccc(Cl)c3)c2c1
IC50 [19]: 4 µM | IC50 [20]: 1.5 µM | IC50 [21]: 7 µM | IC50 [22]: 2 µM

COc1ccc(/C=N\c2nsc3ccc(C)cc23)cc1
IC50 [19]: 4 µM | IC50 [20]: 1.5 µM | IC50 [21]: 6.5 µM | IC50 [22]: 4 µM

Oc1ccc(Br)cc1/C=N/Cc1cccs1
IC50 [23]: 9.1 µM | Ratio IC50 [24]: >2 | IC50 [25]: 3.8 µM

O=[N+]([O-])c1ccc(/C=N/c2ccccc2)cc1
IC50 [9]: 123 µM | IC50 [10]: 2 µM | IC50 [11]: 1.6 µM | IC50 [12]: 165 µM

FC(F)(F)c1ccc(/C=N/c2ccccc2)cc1
IC50 [9]: 0.9 µM | IC50 [10]: 161 µM | IC50 [11]: 138 µM | IC50 [12]: 1.9 µM

O=C(NO)N/N=C/c1cc(Cl)cc(Cl)c1O
IC50 [1]: 21.2 µM | IC50 [2]: 22.2 µM

CSC(=S)N/N=C(\c1ccccc1)c1ccccn1
IC50 [8]: 35 µM

CC/N=C/c1c(O)c(O)c(C(C)C)c2cc(C)c(-c3c(C)cc4c(C(C)C)c(O)c(O)c(/C=N/CC)c4c3O)c(O)c12 (stereo in doubt; (+)-74)
IC50 ([5]; mcf7): 1 µM | IC50 ([6]; kb): 1.6 µM | IC50 ([7]; mcf7): 0.3 µM

CC/N=C/c1c(O)c(O)c(C(C)C)c2cc(C)c(-c3c(C)cc4c(C(C)C)c(O)c(O)c(/C=N/CC)c4c3O)c(O)c12 (stereo in doubt; (+/-)-74)
IC50 ([5]; mcf7): 5 µM | IC50 ([6]; kb): 1 µM | IC50 ([7]; mcf7): 0.4 µM

CC/N=C/c1c(O)c(O)c(C(C)C)c2cc(C)c(-c3c(C)cc4c(C(C)C)c(O)c(O)c(/C=N/CC)c4c3O)c(O)c12 (stereo in doubt; (-)-74)
IC50 ([5]; mcf7): 0.2 µM | IC50 ([6]; kb): 0.3 µM | IC50 ([7]; mcf7): 0.8 µM
